According to US20110046108A1, “PYRIMIDINE DERIVATIVES” (AstraZeneca AB, priority 2006, published 2011):
Read-outs that look alike come from different tables or passages of the source.

How the values were obtained:
EphB4 = target: T1, EphB4 (Homo sapiens, UniProt P54760); assay: In vitro EphB4 cell assay (Assay B, EphB4 phosphorylation ELISA in EphB4-CHO cells); type: cell-based
T1 construct: to generate full-length EphB4 containing a Myc-His tag at the C-terminus; expressed in transfected cells; host or cells: CHO-K1 (EphB4-CHO)

c-Src kinase = target: T2, c-Src kinase (Homo sapiens, UniProt P12931); assay: Src in vitro enzyme assay (Assay C, ELISA); type: biochemical; conditions: 2.2 μM ATP
T2 construct: purchased Upstate 14-117
Method: The ability of test compounds to inhibit the phosphorylation of a tyrosine containing polypeptide substrate by the enzyme c-Src kinase was assessed using a conventional ELISA assay with a colorimetric endpoint.
Each well of Matrix 384-well plates (Matrix, Brooke Park, Wilmslow, Cheshire, SK9 3LP, UK, Catalogue No. 4311) were coated overnight at 4° C. with 40 μl of 10 ug/ml stock of synthetic polyamino acid pEAY substrate (Sigma-Aldrich Company Ltd, Gillingham, Dorset, SP8 4XT, UK, Catalogue No. P3899) in phosphate buffered saline (PBS). Immediately prior to the assay, the plates were washed with 100 μl/well of PBS containing Tween-20 and then with 50 mM HEPES pH7.4.
Test compounds were prepared as 10 mM stock solutions in DMSO (Sigma-Aldrich Company Ltd, Gillingham, Dorset, SP8 4XT, UK, Catalogue No.154938) and serially diluted with 10% DMSO to give a range of test concentrations at 4× the required final concentration. […]
The plates were washed three times with 100 μl/well of PBS-Tween20 and then 40 μl of a PBS-Tween20 and 0.5% BSA solution containing 4G10-HRP anti-phosphotyrosine antibody (Upstate, Catalogue No 16-105) added to each well. […] The reaction was then stopped with the addition of 20 μl/well 2M sulphuric acid and the absorbances determined at 450 nm using a plate reading spectrophotometer. […]

recombinant EphB4 = target: T3, recombinant EphB4 (Homo sapiens, UniProt P54760); assay: In vitro EphB4 enzyme assay (Assay A, Alphascreen); type: biochemical; conditions: 4 μM ATP
T3 construct: recombinant active EphB4 (amino acids 563-987; Swiss-Prot Acc; No. P54760); purchased ProQinase GmbH 0178-0000-3
T3 sequence (P54760 563-987): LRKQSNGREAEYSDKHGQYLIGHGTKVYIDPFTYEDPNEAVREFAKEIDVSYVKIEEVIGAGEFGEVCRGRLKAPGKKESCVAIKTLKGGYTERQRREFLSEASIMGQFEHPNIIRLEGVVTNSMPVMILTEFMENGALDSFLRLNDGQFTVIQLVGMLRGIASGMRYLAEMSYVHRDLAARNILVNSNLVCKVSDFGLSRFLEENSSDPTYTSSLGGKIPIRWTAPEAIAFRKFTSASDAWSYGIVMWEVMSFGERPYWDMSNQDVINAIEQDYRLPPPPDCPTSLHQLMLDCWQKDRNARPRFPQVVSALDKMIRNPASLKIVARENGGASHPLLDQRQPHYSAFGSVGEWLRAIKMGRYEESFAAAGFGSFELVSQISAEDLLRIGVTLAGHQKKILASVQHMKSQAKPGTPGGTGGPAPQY
Method: This assay detects inhibitors of EphB4-mediated phosphorylation of a polypeptide substrate using Alphascreen™ luminescence detection technology. Briefly, recombinant EphB4 was incubated with a biotinylated-polypeptide substrate (biotin-poly-GAT) in presence of magnesium-ATP. The reaction was stopped by addition of EDTA, together with streptavidin-coated donor beads which bind the biotin-substrate containing any phosphorylated tyrosine residues. Anti-phosphotyrosine antibodies present on acceptor beads bind to phosphorylated substrate, thus bringing the donor & acceptor beads into close proximity. Subsequent excitation of the donor beads at 680 nm generated singlet oxygen species that interact with a chemiluminescer on the acceptor beads, leading to light emission at 520-620 nm. The signal intensity is directly proportional to the level of substrate phosphorylation and thus inhibition is measured by a decrease in signal.
Test compounds were prepared as 10 mM stock solutions in DMSO (Sigma-Aldrich Company Ltd, Gillingham, Dorset SP8 4XT Catalogue No.154938) and serially diluted with 5% DMSO to give a range of test concentrations at 6× the required final concentration. […]
The resulting assay signal was determined on the Perkin Elmer EnVision plate reader. […]

[1] = mean values, Table A, read-out: Mean IC50 (μM) obtained using Assay B

T1 sequence (P54760 16-987): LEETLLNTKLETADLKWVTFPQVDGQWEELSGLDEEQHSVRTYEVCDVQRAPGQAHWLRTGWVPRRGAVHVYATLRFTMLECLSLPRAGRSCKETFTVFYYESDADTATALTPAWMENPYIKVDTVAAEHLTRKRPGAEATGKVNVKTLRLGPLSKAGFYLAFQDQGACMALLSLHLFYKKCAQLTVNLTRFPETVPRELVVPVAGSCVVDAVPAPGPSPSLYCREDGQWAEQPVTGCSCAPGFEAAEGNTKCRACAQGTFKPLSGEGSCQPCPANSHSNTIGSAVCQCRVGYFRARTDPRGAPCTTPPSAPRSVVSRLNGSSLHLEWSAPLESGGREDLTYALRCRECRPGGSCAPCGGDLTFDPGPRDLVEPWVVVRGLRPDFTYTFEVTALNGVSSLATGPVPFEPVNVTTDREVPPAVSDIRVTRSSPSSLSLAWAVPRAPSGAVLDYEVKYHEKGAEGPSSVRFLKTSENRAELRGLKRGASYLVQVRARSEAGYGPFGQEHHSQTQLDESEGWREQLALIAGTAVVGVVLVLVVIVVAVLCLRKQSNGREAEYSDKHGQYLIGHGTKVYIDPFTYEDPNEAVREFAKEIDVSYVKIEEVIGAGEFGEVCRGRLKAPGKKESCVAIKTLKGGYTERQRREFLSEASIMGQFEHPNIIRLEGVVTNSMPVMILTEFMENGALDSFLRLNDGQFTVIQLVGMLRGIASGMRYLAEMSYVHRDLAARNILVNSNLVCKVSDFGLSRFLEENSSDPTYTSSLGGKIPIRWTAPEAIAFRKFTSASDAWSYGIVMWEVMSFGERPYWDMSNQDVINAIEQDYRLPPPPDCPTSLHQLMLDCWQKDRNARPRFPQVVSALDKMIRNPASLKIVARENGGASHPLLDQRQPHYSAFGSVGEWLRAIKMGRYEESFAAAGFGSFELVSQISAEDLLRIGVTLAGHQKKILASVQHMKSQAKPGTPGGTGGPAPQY
T2 sequence (P12931 whole entry): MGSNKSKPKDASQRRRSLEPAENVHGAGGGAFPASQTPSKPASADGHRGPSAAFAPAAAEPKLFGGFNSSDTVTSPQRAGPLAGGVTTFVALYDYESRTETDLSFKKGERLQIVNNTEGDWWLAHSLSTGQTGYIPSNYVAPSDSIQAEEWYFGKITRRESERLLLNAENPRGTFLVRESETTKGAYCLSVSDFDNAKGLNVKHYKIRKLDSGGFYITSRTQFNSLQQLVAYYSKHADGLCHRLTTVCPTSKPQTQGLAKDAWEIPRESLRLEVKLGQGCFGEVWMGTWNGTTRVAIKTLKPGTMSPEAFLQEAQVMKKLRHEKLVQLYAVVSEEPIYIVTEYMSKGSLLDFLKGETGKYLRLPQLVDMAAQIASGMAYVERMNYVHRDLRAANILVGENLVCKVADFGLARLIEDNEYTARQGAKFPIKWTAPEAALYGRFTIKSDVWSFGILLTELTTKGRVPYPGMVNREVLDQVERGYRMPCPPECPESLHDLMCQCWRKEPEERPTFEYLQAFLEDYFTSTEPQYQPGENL

IC50 (EphB4; [1]) [µM]	SMILES	further results
0.14	CN(c1ccnc(Nc2cccc(NS(C)(=O)=O)c2)n1)c1c(Cl)ccc2c1OCO2 [Compound 219, N-[3-[[4-[(5-chlorobenzo [1,3]dioxol-4-yl)-methyl-amino]pyrimidin-2-yl]amino]phenyl]methane sulfonamide]	–
0.13	N#Cc1cccc(Nc2nccc(N(CCO)c3c(Cl)ccc4c3OCO4)n2)c1 [Compound 241, 3-[[4-[(5-chlorobenzo [1,3]dioxol-4-yl)-(2-hydroxyethyl)amino]pyrimidin-2-yl]amino] benzonitrile]	–
1.08	COc1cc(Nc2nccc(Nc3cccc4c3OCO4)n2)cc(OC)c1 [Compound 258, N′-benzo[1,3]dioxol-4-yl-N-(3,5-dimethoxyphenyl) pyrimidine-2,4-diamine]	–
0.19	CS(=O)(=O)Nc1cccc(Nc2nccc(N(CC#N)c3c(Cl)ccc4c3OCO4)n2)c1 [Compound 227]	–
–	Clc1ccc2c(c1Nc1ccnc(Nc3ccc4ncsc4c3)n1)OCO2 [Compound 59, N~2~-1,3-benzothiazol-6-yl-N~4~-(5-chloro-1,3-benzodioxol-4-yl)pyrimidine-2,4-diamine]	IC50 (EphB4; ephrin-B2 stimulated EphB4 phosphorylation, read-out: IC50 in assay B): 1.25 µM; IC50 (c-Src kinase): 330 nM; IC50 (recombinant EphB4): 460 nM
0.23	CC(=O)Nc1cc(Nc2nccc(Nc3cccc4[nH]ncc34)n2)ccc1C [Compound 293, N-[5-[[4-(1H-indazol-4-ylamino)pyrimidin-2-yl]amino]-2-methyl-phcnyl] acetamide]	–
